Data from patent publication US11987588B2, “Modulators of the beta-3 adrenergic receptor useful for the treatment or prevention of heart failure and disorders related thereto” (Arena Pharmaceuticals, Inc., priority 2017, dated 2024).
pIC50: −log10 of the molar value.

Target: Beta-3 Adrenergic Receptor (Homo sapiens (Human), UniProt P13945)
Test: Homogeneous Time-Resolved Fluorescence (HTRF) cAMP antagonist assay, IC50 determination
Format: cell-based
Settings: CHO-K1 cells stably expressing recombinant receptor, isoproterenol at EC90
Summary of the method: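 In this functional readout, recombinant CHO-K1 cells received compound, then isoproterenol at its EC90. After 1 h at room temperature, cAMP levels were determined by HTRF using an on-plate standard curve, and IC50 values were fitted.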

Chain of Beta-3 Adrenergic Receptor (P13945 whole entry, species assumed): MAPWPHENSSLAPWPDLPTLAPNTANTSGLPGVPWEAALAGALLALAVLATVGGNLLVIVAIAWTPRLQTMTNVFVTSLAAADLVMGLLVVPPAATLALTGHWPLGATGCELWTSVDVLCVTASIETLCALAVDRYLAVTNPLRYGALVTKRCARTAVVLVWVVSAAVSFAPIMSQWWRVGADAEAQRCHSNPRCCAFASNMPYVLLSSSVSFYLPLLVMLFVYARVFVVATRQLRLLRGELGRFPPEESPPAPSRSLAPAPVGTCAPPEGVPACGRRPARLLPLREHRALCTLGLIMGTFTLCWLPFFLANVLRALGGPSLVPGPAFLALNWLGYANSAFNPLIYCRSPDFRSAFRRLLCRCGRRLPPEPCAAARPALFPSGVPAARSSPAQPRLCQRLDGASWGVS

SMILES | pIC50
CNS(=O)(=O)c1cccc(OC[C@@H](O)CN[C@H]2COC3(CCN(S(=O)(=O)c4ccc5[nH]c(C)nc5c4)CC3)C2)c1 [Compound 501, 3-((S)-2-hydroxy-3-((R)-8-(2-methyl-1H-benzo[d]imidazol-5-ylsulfonyl)-1-oxa-8-azaspiro[4.5]decan-3-ylamino)propoxy)-N-methylbenzenesulfonamide] | 7.64
CNS(=O)(=O)c1cccc(OC[C@@H](O)CN[C@H]2COC3(CCN(S(=O)(=O)c4cnc5cn[nH]c5c4)CC3)C2)c1 [Compound 502, 3-((S)-3-((R)-8-(1H-pyrazolo[4,3-b]pyridin-6-ylsulfonyl)-1-oxa-8-azaspiro[4.5]decan-3-ylamino)-2-hydroxypropoxy)-N-methylbenzenesulfonamide] | 7.72
CNS(=O)(=O)c1cccc(OC[C@@H](O)CN[C@H]2COC3(CCN(S(=O)(=O)c4ccc5[nH]cnc5c4)CC3)C2)c1 [Compound 503, 3-((S)-3-((R)-8-(1H-benzo[d]imidazol-5-ylsulfonyl)-1-oxa-8-azaspiro[4.5]decan-3-ylamino)-2-hydroxypropoxy)-N-methylbenzenesulfonamide] | 7.54
CNS(=O)(=O)c1cccc(OC[C@@H](O)CN[C@H]2COC3(CCN(S(=O)(=O)c4cnc5c(c4)CCO5)CC3)C2)c1 [Compound 504, 3-((S)-3-((R)-8-(2,3-dihydrofuro[2,3-b]pyridin-5-ylsulfonyl)-1-oxa-8-azaspiro[4.5]decan-3-ylamino)-2-hydroxypropoxy)-N-methylbenzenesulfonamide] | 6.66
CNS(=O)(=O)c1cccc(OC[C@@H](O)CN[C@H]2COC3(CCN(S(=O)(=O)c4cnc5[nH]ccc5c4)CC3)C2)c1 [Compound 506, 3-((S)-3-((R)-8-(1H-pyrrolo[2,3-b]pyridin-5-ylsulfonyl)-1-oxa-8-azaspiro[4.5]decan-3-ylamino)-2-hydroxypropoxy)-N-methylbenzenesulfonamide] | 7.92
CNS(=O)(=O)c1cccc(OC[C@@H](O)CN[C@H]2COC3(CCN(S(=O)(=O)c4c[nH]c5ncccc45)CC3)C2)c1 [Compound 507, 3-((S)-3-((R)-8-(1H-pyrrolo[2,3-b]pyridin-3-ylsulfonyl)-1-oxa-8-azaspiro[4.5]decan-3-ylamino)-2-hydroxypropoxy)-N-methylbenzenesulfonamide] | 7.23
CNS(=O)(=O)c1cccc(OC[C@@H](O)CN[C@H]2COC3(CCN(S(=O)(=O)c4ccc5[nH]ncc5c4OC)CC3)C2)c1 [Compound 508, 3-((S)-2-hydroxy-3-((R)-8-(4-methoxy-1H-indazol-5-ylsulfonyl)-1-oxa-8-azaspiro[4.5]decan-3-ylamino)propoxy)-N-methylbenzenesulfonamide] | 6.68
CNS(=O)(=O)c1cccc(OC[C@@H](O)CN[C@H]2COC3(CCN(S(=O)(=O)c4cnc5[nH]cc(C(F)(F)F)c5c4)CC3)C2)c1 [Compound 509, 3-((S)-2-hydroxy-3-((R)-8-(3-(trifluoromethyl)-1H-pyrrolo[2,3-b]pyridin-5-ylsulfonyl)-1-oxa-8-azaspiro[4.5]decan-3-ylamino)propoxy)-N-methylbenzenesulfonamide] | 8.16
CNS(=O)(=O)c1cccc(OC[C@@H](O)CN[C@H]2COC3(CCN(S(=O)(=O)c4cnc5[nH]cc(Cl)c5c4)CC3)C2)c1 [Compound 510, 3-((S)-3-((R)-8-(3-chloro-1H-pyrrolo[2,3-b]pyridin-5-ylsulfonyl)-1-oxa-8-azaspiro[4.5]decan-3-ylamino)-2-hydroxypropoxy)-N-methylbenzenesulfonamide] | 8.31
CCn1cnc2cc(S(=O)(=O)N3CCC4(CC3)C[C@@H](NC[C@H](O)COc3cccc(S(=O)(=O)NC)c3)CO4)cnc21 [Compound 511, 3-((S)-3-((R)-8-(3-ethyl-3H-imidazo[4,5-b]pyridin-6-ylsulfonyl)-1-oxa-8-azaspiro[4.5]decan-3-ylamino)-2-hydroxypropoxy)-N-methylbenzenesulfonamide] | 7.69
CNS(=O)(=O)c1cccc(OC[C@@H](O)CN[C@H]2COC3(CCN(S(=O)(=O)c4cnc5[nH]cc(C)c5c4)CC3)C2)c1 [Compound 512, 3-((S)-2-hydroxy-3-((R)-8-(3-methyl-1H-pyrrolo[2,3-b]pyridin-5-ylsulfonyl)-1-oxa-8-azaspiro[4.5]decan-3-ylamino)propoxy)-N-methylbenzenesulfonamide] | 8.18
CNS(=O)(=O)c1cccc(OC[C@@H](O)CN[C@H]2COC3(CCN(S(=O)(=O)c4cnc5c(c4)c(Cl)cn5C)CC3)C2)c1 [Compound 513, 3-((S)-3-((R)-8-(3-chloro-1-methyl-1H-pyrrolo[2,3-b]pyridin-5-ylsulfonyl)-1-oxa-8-azaspiro[4.5]decan-3-ylamino)-2-hydroxypropoxy)-N-methylbenzenesulfonamide] | 8.20
CNS(=O)(=O)c1cccc(OC[C@@H](O)CN[C@H]2COC3(CCN(S(=O)(=O)c4cnc5c(c4)CC(=O)N5)CC3)C2)c1 [Compound 514, 3-((S)-2-hydroxy-3-((R)-8-(2-oxo-2,3-dihydro-1H-pyrrolo[2,3-b]pyridin-5-ylsulfonyl)-1-oxa-8-azaspiro[4.5]decan-3-ylamino)propoxy)-N-methylbenzenesulfonamide] | 6.75
CCc1nc2cc(S(=O)(=O)N3CCC4(CC3)C[C@@H](NC[C@H](O)COc3cccc(S(=O)(=O)NC)c3)CO4)cnc2[nH]1 [Compound 515, 3-((S)-3-((R)-8-(2-ethyl-3H-imidazo[4,5-b]pyridin-6-ylsulfonyl)-1-oxa-8-azaspiro[4.5]decan-3-ylamino)-2-hydroxypropoxy)-N-methylbenzenesulfonamide] | 7.13
CNS(=O)(=O)c1cccc(OC[C@@H](O)CN[C@H]2COC3(CCN(S(=O)(=O)c4cc5nc[nH]c5nc4C)CC3)C2)c1 [Compound 516, 3-((S)-2-hydroxy-3-((R)-8-(5-methyl-3H-imidazo[4,5-b]pyridin-6-ylsulfonyl)-1-oxa-8-azaspiro[4.5]decan-3-ylamino)propoxy)-N-methylbenzenesulfonamide] | 6.78
CNS(=O)(=O)c1cccc(OC[C@@H](O)CN[C@H]2COC3(CCN(S(=O)(=O)c4cnc5[nH]c(C)c(Cl)c5c4)CC3)C2)c1 [Compound 517, 3-((S)-3-((R)-8-(3-chloro-2-methyl-1H-pyrrolo[2,3-b]pyridin-5-ylsulfonyl)-1-oxa-8-azaspiro[4.5]decan-3-ylamino)-2-hydroxypropoxy)-N-methylbenzenesulfonamide] | 8.11
CNS(=O)(=O)c1cccc(OC[C@@H](O)CN[C@H]2COC3(CCN(S(=O)(=O)c4cnc5c(c4)[nH]c(=O)n5C)CC3)C2)c1 [Compound 518, 3-((S)-2-hydroxy-3-((R)-8-(3-methyl-2-oxo-2,3-dihydro-1H-imidazo[4,5-b]pyridin-6-ylsulfonyl)-1-oxa-8-azaspiro[4.5]decan-3-ylamino)propoxy)-N-methylbenzenesulfonamide] | 6.88
CNS(=O)(=O)c1cccc(OC[C@@H](O)CN[C@H]2COC3(CCN(S(=O)(=O)c4cnc5[nH]cnc5c4C)CC3)C2)c1 [Compound 519, 3-((S)-2-hydroxy-3-((R)-8-(7-methyl-3H-imidazo[4,5-b]pyridin-6-ylsulfonyl)-1-oxa-8-azaspiro[4.5]decan-3-ylamino)propoxy)-N-methylbenzenesulfonamide] | 7.16
CCNS(=O)(=O)c1cccc(OC[C@@H](O)CN[C@H]2COC3(CCN(S(=O)(=O)c4cnc5cc[nH]c5c4)CC3)C2)c1 [Compound 520, 3-((S)-3-((R)-8-(1H-pyrrolo[3,2-b]pyridin-6-ylsulfonyl)-1-oxa-8-azaspiro[4.5]decan-3-ylamino)-2-hydroxypropoxy)-N-ethylbenzenesulfonamide] | 7.84
O=S(=O)(NCCO)c1cccc(OC[C@@H](O)CN[C@H]2COC3(CCN(S(=O)(=O)c4cnc5cc[nH]c5c4)CC3)C2)c1 [Compound 521, 3-((S)-3-((R)-8-(1H-pyrrolo[3,2-b]pyridin-6-ylsulfonyl)-1-oxa-8-azaspiro[4.5]decan-3-ylamino)-2-hydroxypropoxy)-N-(2-hydroxyethyl)benzenesulfonamide] | 7.01
CNS(=O)(=O)c1cccc(OC[C@@H](O)CN[C@H]2COC3(CCN(S(=O)(=O)c4cnc5[nH]c(=O)n(C)c5c4)CC3)C2)c1 [Compound 522, 3-((S)-2-hydroxy-3-((R)-8-(1-methyl-2-oxo-2,3-dihydro-1H-imidazo[4,5-b]pyridin-6-ylsulfonyl)-1-oxa-8-azaspiro[4.5]decan-3-ylamino)propoxy)-N-methylbenzenesulfonamide] | 7.65
CNS(=O)(=O)c1cccc(OC[C@@H](O)CN[C@H]2COC3(CCN(S(=O)(=O)c4cnc5ncn(C)c5c4)CC3)C2)c1 [Compound 523, 3-((S)-2-hydroxy-3-((R)-8-(1-methyl-1H-imidazo[4,5-b]pyridin-6-ylsulfonyl)-1-oxa-8-azaspiro[4.5]decan-3-ylamino)propoxy)-N-methylbenzenesulfonamide] | 6.56
CCCn1cc(S(=O)(=O)N2CCC3(CC2)C[C@@H](NC[C@H](O)COc2cccc(S(=O)(=O)NC)c2)CO3)c(=O)c2ccccc21 [Compound 524, 3-((S)-2-hydroxy-3-((R)-8-(4-oxo-1-propyl-1,4-dihydroquinolin-3-ylsulfonyl)-1-oxa-8-azaspiro[4.5]decan-3-ylamino)propoxy)-N-methylbenzenesulfonamide] | 7.06
CCn1cc(S(=O)(=O)N2CCC3(CC2)C[C@@H](NC[C@H](O)COc2cccc(S(=O)(=O)NC)c2)CO3)c(=O)c2cccc(F)c21 [Compound 525, 3-((S)-3-((R)-8-(1-ethyl-8-fluoro-4-oxo-1,4-dihydroquinolin-3-ylsulfonyl)-1-oxa-8-azaspiro[4.5]decan-3-ylamino)-2-hydroxypropoxy)-N-methylbenzenesulfonamide] | 7.67
CNS(=O)(=O)c1cccc(OC[C@@H](O)CN[C@H]2COC3(CCN(S(=O)(=O)c4cnc5ccn(C)c5c4)CC3)C2)c1 [Compound 526, 3-((S)-2-hydroxy-3-((R)-8-(1-methyl-1H-pyrrolo[3,2-b]pyridin-6-ylsulfonyl)-1-oxa-8-azaspiro[4.5]decan-3-ylamino)propoxy)-N-methylbenzenesulfonamide] | 8.16
